Experimental data published in the supplement of paper PMC12463676, “Small-molecule dissolution of stress granules by redox modulation benefits ALS models” (Nature Chemical Biology, 2025).

What was measured:
[1] = compound: NC(=O)CCCCC1CCSS1 [lipoamide]; assay: thermal stability z-score vs DMSO; higher = more thermally stabilized by treatment; settings: HeLa, lipoamide concentration 100 µM
Experimental: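 Cellular thermal proteome profiling in HeLa cells. Cells were treated with 100 µM lipoamide for 1 h, with or without 1 mM arsenate for a further 1 h, then heated to ten temperatures (37-66.3 °C), and soluble protein was quantified by TMT mass spectrometry relative to 0.1% DMSO controls. The thermal stability score (sum of log2 fold changes minus the abundance score) was transformed to a z-score; mean of n = 3 experiments.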

[2] = compound: O=[As]([O-])(O)O.[K+] [potassium arsenate]; assay: as above; settings: HeLa; arsenate concentration 1 mM
Experimental: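 Cellular thermal proteome profiling in HeLa cells treated with 1 mM arsenate for 1 h (DMSO pretreatment), heated to ten temperatures (37-66.3 °C). Soluble protein was quantified by TMT mass spectrometry relative to DMSO controls; the thermal stability score was transformed to a z-score; mean of n = 3 experiments.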

[3] = arsenate co-treatment: 1 mM arsenate 1 h
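Further: each temperature applied for 3 min, abundance score taken as mean log2 fold change at the two lowest temperatures, z-score obtained by mean subtraction and division by SD.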

Sequence of UniProt Q9H7F0 (Q9H7F0 whole entry): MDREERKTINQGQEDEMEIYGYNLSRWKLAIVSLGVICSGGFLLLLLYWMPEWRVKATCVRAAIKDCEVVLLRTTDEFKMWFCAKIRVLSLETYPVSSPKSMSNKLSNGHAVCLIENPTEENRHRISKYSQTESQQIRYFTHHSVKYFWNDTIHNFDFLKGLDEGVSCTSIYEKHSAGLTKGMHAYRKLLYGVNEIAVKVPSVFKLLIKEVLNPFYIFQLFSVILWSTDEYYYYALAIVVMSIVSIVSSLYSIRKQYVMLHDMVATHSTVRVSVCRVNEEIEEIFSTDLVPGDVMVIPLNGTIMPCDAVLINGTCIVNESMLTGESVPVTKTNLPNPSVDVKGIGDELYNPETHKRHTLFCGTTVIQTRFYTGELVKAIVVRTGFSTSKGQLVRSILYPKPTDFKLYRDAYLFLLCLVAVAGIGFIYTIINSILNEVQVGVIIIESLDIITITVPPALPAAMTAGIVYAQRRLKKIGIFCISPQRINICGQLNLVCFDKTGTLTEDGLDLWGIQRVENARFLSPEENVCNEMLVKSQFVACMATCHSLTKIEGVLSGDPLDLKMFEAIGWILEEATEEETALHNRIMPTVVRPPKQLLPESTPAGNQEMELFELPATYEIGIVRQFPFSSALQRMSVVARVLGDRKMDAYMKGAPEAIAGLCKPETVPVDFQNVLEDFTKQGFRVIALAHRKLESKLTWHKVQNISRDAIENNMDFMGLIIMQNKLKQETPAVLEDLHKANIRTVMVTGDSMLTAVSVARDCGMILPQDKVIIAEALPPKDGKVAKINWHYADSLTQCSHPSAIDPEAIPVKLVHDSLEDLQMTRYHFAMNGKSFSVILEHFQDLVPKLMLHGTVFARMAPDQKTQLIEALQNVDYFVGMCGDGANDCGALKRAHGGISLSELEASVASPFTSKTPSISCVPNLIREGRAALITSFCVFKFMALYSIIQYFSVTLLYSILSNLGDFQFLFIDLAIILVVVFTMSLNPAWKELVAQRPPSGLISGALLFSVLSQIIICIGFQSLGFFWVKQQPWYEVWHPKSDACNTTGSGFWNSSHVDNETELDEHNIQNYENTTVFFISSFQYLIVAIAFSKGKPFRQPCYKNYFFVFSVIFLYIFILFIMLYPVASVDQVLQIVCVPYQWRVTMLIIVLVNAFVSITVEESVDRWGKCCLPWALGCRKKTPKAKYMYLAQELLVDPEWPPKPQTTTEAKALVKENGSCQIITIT
Sequence of UniProt Q04760 (Q04760 whole entry, looked up): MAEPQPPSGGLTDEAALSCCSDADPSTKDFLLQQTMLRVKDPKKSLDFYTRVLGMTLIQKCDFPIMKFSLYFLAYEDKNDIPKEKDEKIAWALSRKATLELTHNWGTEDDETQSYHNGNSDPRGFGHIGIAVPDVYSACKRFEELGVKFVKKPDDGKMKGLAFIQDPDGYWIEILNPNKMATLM
Sequence of UniProt Q9Y2Z9 (Q9Y2Z9 whole entry): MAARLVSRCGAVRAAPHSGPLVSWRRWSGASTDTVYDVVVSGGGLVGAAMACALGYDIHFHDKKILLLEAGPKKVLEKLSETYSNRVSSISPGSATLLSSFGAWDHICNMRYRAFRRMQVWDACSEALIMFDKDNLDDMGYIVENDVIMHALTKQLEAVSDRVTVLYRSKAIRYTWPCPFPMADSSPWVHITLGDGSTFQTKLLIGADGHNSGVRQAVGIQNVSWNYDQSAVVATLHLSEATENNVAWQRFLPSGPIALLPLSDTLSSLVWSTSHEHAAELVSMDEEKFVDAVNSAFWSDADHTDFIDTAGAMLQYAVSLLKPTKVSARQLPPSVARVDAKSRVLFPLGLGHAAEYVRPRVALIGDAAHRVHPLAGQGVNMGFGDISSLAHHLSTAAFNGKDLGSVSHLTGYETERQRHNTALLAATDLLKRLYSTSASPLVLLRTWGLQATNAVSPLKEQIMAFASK
Sequence of UniProt Q8N6H7 (Q8N6H7 whole entry): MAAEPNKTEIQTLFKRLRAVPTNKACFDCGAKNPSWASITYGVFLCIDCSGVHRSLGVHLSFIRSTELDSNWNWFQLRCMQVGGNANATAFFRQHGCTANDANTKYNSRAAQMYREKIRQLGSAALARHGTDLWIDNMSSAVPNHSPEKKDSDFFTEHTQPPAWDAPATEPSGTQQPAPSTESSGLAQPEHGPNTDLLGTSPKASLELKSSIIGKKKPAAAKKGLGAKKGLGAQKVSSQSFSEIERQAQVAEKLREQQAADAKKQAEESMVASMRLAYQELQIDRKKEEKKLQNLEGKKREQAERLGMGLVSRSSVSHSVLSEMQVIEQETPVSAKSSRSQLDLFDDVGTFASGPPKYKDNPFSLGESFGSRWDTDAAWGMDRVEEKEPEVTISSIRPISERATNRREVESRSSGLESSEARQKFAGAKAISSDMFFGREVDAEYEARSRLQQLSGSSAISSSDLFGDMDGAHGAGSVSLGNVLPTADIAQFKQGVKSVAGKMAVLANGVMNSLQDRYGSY
Sequence of UniProt Q99460 (Q99460 whole entry): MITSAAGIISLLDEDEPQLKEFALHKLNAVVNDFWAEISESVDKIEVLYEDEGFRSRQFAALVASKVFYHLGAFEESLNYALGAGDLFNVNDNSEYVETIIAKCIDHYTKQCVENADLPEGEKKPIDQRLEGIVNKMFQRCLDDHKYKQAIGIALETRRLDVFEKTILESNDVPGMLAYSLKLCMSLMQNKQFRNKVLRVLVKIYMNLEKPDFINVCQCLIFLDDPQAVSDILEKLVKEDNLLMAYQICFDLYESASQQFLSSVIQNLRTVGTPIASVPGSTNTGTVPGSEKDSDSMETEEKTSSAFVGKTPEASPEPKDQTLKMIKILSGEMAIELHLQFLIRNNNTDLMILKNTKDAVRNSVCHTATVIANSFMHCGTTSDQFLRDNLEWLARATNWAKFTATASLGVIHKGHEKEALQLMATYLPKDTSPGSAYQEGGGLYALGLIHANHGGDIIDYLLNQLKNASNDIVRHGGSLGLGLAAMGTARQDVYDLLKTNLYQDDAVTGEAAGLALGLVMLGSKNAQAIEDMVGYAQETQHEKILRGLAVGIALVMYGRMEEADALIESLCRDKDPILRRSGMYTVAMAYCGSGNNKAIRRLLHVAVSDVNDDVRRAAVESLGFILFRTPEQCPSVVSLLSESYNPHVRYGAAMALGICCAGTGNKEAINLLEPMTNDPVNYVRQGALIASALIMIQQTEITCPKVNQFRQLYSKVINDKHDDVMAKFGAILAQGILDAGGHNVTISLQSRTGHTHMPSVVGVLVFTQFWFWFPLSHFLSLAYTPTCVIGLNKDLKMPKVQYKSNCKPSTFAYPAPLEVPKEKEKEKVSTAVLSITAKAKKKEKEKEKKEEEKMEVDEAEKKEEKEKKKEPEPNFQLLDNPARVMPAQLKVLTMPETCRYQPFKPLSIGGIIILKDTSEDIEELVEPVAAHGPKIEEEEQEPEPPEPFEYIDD
Sequence of UniProt Q15370 (Q15370 whole entry): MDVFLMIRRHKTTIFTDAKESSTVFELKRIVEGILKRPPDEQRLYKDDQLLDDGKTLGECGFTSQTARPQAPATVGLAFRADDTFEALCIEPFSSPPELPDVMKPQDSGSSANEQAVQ
Sequence of UniProt Q68CQ7 (Q68CQ7 whole entry): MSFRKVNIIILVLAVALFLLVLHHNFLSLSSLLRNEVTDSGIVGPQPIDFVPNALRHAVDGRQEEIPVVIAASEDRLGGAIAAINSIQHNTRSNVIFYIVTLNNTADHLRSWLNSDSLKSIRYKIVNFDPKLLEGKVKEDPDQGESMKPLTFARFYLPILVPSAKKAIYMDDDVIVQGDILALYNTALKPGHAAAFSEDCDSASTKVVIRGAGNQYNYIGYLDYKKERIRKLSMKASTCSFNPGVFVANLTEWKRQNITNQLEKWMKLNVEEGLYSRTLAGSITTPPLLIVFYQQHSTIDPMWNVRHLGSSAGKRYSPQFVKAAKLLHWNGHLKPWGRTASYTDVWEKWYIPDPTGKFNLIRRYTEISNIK
Sequence of UniProt O60256 (O60256 whole entry): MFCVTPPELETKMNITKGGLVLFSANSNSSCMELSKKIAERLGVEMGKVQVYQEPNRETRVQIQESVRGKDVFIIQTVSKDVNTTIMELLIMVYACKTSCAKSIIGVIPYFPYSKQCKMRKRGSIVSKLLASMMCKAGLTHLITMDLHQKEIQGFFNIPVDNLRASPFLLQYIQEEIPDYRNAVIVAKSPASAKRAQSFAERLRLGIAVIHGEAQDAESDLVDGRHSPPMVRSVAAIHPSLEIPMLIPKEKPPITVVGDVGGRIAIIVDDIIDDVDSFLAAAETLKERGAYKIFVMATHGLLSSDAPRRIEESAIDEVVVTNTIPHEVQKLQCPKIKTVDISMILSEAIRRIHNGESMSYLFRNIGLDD
Sequence of UniProt Q96II8 (Q96II8 whole entry): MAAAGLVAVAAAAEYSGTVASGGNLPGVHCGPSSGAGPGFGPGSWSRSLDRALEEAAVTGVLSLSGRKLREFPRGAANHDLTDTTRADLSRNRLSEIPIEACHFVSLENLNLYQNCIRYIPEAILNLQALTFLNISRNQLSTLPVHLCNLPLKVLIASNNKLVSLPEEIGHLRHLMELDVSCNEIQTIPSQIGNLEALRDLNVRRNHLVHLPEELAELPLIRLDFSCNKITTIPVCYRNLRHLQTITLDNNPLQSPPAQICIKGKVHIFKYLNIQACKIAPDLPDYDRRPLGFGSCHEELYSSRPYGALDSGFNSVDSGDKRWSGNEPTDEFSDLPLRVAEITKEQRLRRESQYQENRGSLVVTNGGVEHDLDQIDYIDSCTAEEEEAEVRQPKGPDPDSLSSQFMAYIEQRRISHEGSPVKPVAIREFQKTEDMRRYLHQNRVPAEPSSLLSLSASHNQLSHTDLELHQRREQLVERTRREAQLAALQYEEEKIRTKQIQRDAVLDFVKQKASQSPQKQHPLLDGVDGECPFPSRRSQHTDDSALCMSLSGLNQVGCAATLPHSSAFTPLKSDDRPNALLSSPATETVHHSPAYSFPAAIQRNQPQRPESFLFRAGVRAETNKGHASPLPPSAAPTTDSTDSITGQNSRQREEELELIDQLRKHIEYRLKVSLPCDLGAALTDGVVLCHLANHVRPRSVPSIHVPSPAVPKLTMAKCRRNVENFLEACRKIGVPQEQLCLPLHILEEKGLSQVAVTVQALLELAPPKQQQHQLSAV

Row | Target | thermal stability z-score [1, 3] | thermal stability z-score ([1]; arsenate co-treatment: none) | thermal stability z-score [2]
1 | PRRC2C (UniProt Q9Y520) | 0.242 | 0.174 | 0.0846
2 | HSPA12A (UniProt O43301) | -0.677 | -0.446 | -0.84
3 | PTPRM (UniProt P28827) | 0.782 | 1.16 | 0.672
4 | DDX20 (UniProt Q9UHI6) | -0.457 | -0.527 | -0.763
5 | ATP13A3 (UniProt Q9H7F0) | -0.563 | 0.206 | 0.165
6 | PDCD11 (UniProt Q14690) | -0.0446 | -0.334 | -0.125
7 | ARFGAP2 (UniProt Q8N6H7) | -0.346 | -0.143 | 0.0541
8 | NDOR1 (UniProt Q9UHB4) | 0.000709 | 0.487 | 1.08
9 | RALGAPB (UniProt Q86X10) | -0.0332 | -0.00538 | -0.112
10 | PRPSAP2 (UniProt O60256) | -0.04 | -0.392 | -0.637
11 | ACSS2 (UniProt Q9NR19) | 0.198 | 0.512 | -0.517
12 | TCEB2 (UniProt Q15370) | 0.764 | 0.455 | 0.154
13 | ABCB1 (UniProt P08183) | 0.00691 | 0.00658 | -0.039
14 | KIF23 (UniProt Q02241) | 0.207 | 0.324 | -0.0543
15 | TACC3 (UniProt Q9Y6A5) | -0.148 | -0.162 | 0.662
16 | MSH2 (UniProt P43246) | -0.271 | -0.178 | -0.565
17 | PRKAA1 (UniProt Q13131) | -0.417 | -0.0988 | 0.048
18 | RRP9 (UniProt O43818) | -0.195 | 0.108 | -0.755
19 | TMEM199 (UniProt Q8N511) | -0.91 | -1.15 | 0.171
20 | SMARCC2 (UniProt Q8TAQ2) | 1.35 | 1.85 | 0.305
21 | SAMD9 (UniProt Q5K651) | -0.0476 | -0.0624 | -0.13
22 | TPM1 (UniProt P09493) | 0.347 | 0.422 | -0.151
23 | UGDH (UniProt O60701) | -0.0997 | 0.267 | 1.03
24 | SORT1 (UniProt Q99523) | -0.0906 | 0.945 | 1.41
25 | GATAD2A (UniProt Q86YP4) | -0.0451 | -0.00448 | -0.412
26 | RPN1 (UniProt P04843) | -1.47 | -0.974 | 0.346
27 | LRCH3 (UniProt Q96II8) | -0.0719 | -0.00251 | -0.153
28 | UACA (UniProt Q9BZF9) | -0.163 | -0.0805 | 0.02

Row | Target | thermal stability z-score [1, 3] | thermal stability z-score ([1]; arsenate co-treatment: none) | thermal stability z-score [2]
29 | KNOP1 (UniProt Q1ED39) | 0.735 | -0.755 | 0.831
30 | EVPL (UniProt Q92817) | 0.263 | 0.134 | 0.499
31 | TES (UniProt Q9UGI8) | 0.0136 | -0.287 | -4.89
32 | TSTD2 (UniProt Q5T7W7) | -0.0897 | -0.178 | -0.0518
33 | NOP14 (UniProt P78316) | -0.68 | -0.438 | -0.581
34 | MRPL2 (UniProt Q5T653) | 0.745 | 0.173 | 0.601
35 | NDUFB3 (UniProt O43676) | 0.00119 | -0.236 | 0.36
36 | PSMD14 (UniProt O00487) | 0.501 | 0.524 | -0.0143
37 | ASAP1 (UniProt Q9ULH1) | 0.0666 | -0.0222 | -0.0654
38 | HGH1 (UniProt Q9BTY7) | 0.403 | 0.226 | 0.787
39 | NGLY1 (UniProt Q96IV0) | -0.149 | -0.0587 | 0.0507
40 | PON2 (UniProt Q15165) | -4.17 | -3.42 | 0.478
41 | SLIRP (UniProt Q9GZT3) | -0.917 | -0.197 | 0.123
42 | FPGT (UniProt O14772) | -0.111 | 0.182 | 0.0182
43 | GLT8D1 (UniProt Q68CQ7) | -0.426 | -0.593 | 0.145
44 | COQ6 (UniProt Q9Y2Z9) | 1.2 | -0.131 | -2.7
45 | SMG8 (UniProt Q8ND04) | -1.73 | -0.705 | 0.575
46 | GLO1 (UniProt Q04760) | 1.12 | 0.739 | 1.62
47 | DRAP1 (UniProt Q14919) | -0.781 | -0.122 | -0.503
48 | OFD1 (UniProt O75665) | -0.239 | 0.0566 | -0.000259
49 | PSMD1 (UniProt Q99460) | 0.651 | 0.343 | 0.245
50 | CTCF (UniProt P49711) | 0.761 | -0.0166 | -1.14
51 | BRD3 (UniProt Q15059) | 0.0121 | -0.107 | -0.279
52 | DHRS11 (UniProt Q6UWP2) | 0.484 | 0.188 | 0.252
53 | HIBCH (UniProt Q6NVY1) | 0.0376 | -0.171 | -0.476
54 | RBM7 (UniProt Q9Y580) | 0.00736 | 0.0818 | 0.0182
55 | ENDOG (UniProt Q14249) | -1.25 | -0.145 | -0.245
